This is an account of results in patent publication US10611740B2, “Aryl dihydro-2H-benzo[b][1,4]oxazine sulfonamide and related compounds for use as agonists of RORγ and the treatment of disease” (Lycera Corporation, priority 2015, dated 2020).

This experiment has as its target T1, Gal4-RORγ-LBD (Homo sapiens, UniProt P51449).
T1 construct: expressed in transfected cells; host or cells: HEK-293 cells (pcDNA3.1neo plasmid)
T1 sequence (P51449 269-508 limits assumed): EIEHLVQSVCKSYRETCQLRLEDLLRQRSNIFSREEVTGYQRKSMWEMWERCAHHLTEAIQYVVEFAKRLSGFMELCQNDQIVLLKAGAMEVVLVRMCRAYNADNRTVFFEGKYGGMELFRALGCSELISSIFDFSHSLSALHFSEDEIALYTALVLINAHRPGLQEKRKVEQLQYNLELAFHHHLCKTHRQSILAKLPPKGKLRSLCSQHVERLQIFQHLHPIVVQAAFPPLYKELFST
The experiment in a line: Gal4-RORγ Luciferase Reporter Assay in HEK-293T Cells. The experiment is classed as cell-based. The note with it: HEK-293 cells. The procedure: Assay procedures and results are described below.
In the following protocol, HEK-293 cells were transfected with a construct comprising the Gal4 DNA binding domain fused to the ligand binding domain of RORγ (Gal4-RORγ-LBD) in a pcDNA3.1neo plasmid, and also with a reporter construct comprising pGL4.31 Gal4-luciferase (Promega). Control cells were prepared similarly using empty pcDNA3.1neo and pGL4.31 vectors.
Trans-IT reagent (Mirus, 60 μL) at room temperature was added drop wise to OptiMEM (Invitrogen, 1.5 ml). This reagent mixture was mixed by inversion then incubated for 5 to 30 minutes at room temperature. It then was added to a solution of both expression vectors (5 μg each), mixed, and incubated at room temperature for about 20 minutes. HEK-293 cells were harvested from incubation flasks by removing the media, treating with TrypLE Express (Invitrogen), and incubating until the cells detached from the bottom of the flask (approximately 2-5 minutes). 10 Million cells were collected by centrifugation and re-suspended in 10 mL of Dulbecco's Modified Eagle Medium, High Glucose (DMEM, Invitrogen) containing 10% Fetal Bovine Serum and 100 IU each of penicillin and streptomycin. The re-suspended cells and the transfection mixture were added to a T75 flask, mixed and incubated overnight at 37° C. and 5% CO2.
The cells were harvested as described above, counted, and centrifuged to obtain the desired number of cells, then re-suspended in complete growth media at 0.75×10^6 cells/mL. The RORγ antagonist, ursolic acid, was added to the cells at a final concentration of 2 μM. Cells were plated at 20 μL of cell suspension/well (10,000-15,000 cells/well) in white tissue culture treated 384 well plates. Test compounds were dissolved at 10 mM in DMSO then diluted into complete growth medium to 5× the final intended test concentration. These drug stock solutions, 5 μL/well were added to the tissue culture plate. The final DMSO concentration was 0.2%. The plates were briefly centrifuged then incubated overnight at 37° C. and 5% CO2. To conduct the assay, the tissue culture plates were allowed to equilibrate to room temperature and One-Glo luciferase reagent (Promega, 25 μL/well) was added. The plates were briefly centrifuged then incubated at room temperature for 10 minutes. The luciferase intensity was read on an Envision plate reader (Perkin Elmer). […] The luciferase signal in the absence of ursolic acid or test compound is defined at 100. The Max Response is the upper plateau in the signal as determined by line-fit using a 4-parameter logistic model in PRISM (GraphPad).

Where [1] appears, read: luciferase reporter, with 2 μM ursolic acid.

What is called EC50 is the concentration needed to bring the measured effect to its halfway point. Higher therefore signals weaker potency. Consider `CC(C)(O[C@H]1Cc2ccc(-c3cc(F)cc(OC(F)F)c3)cc2N(S(=O)(=O)c2cccc(C(F)(F)F)c2)C1)C(=O)O` [Compound 83F, (S)-2-((7-(3-(difluoromethoxy)-5-fluorophenyl)-1-((3-(trifluoromethyl)phenyl)sulfonyl)-1,2,3,4-tetrahydroquinolin-3-yl)oxy)-2-methylpropanoic acid], for which, where the note is “2 μM ursolic acid”, the EC50 was in the range of 0.5 to 5 µM and the “Gal4-RORγ Assay Max Response” value is on record as “* (The symbol “*” indicates a value in the range of 25 to 90)”.

`CC(C)(O[C@@H]1Cc2ccc(-c3cc(F)ccc3F)cc2N(S(=O)(=O)c2cccc(C(F)(F)F)c2)C1)C(=O)O` [Compound 83B, (R)-2-((7-(2,5-difluorophenyl)-1-((3-(trifluoromethyl)phenyl)sulfonyl)-1,2,3,4-tetrahydroquinolin-3-yl)oxy)-2-methylpropanoic acid]: where the note is “2 μM ursolic acid”, the EC50 is 0.5 to 5 µM and the “Gal4-RORγ Assay Max Response” value is reported as “** (The symbol “**” indicates a value in the range of greater than 90 to 150)”.

On to `O=C(O)C1(C[C@H]2CN(S(=O)(=O)c3cncc(C(F)(F)F)c3)c3cc(-c4cc(F)cc(OC(F)F)c4)ccc3O2)COC1` [Compound 51L, (S)-3-((6-(3-(difluoromethoxy)-5-fluorophenyl)-4-((5-(trifluoro-methyl)pyridin-3-yl)sulfonyl)-3,4-dihydro-2H-benzo[b][1,4]oxazin-2-yl)methyl)oxetane-3-carboxylic acid], for which, for the setting “2 μM ursolic acid”, the EC50 was < 0.5 µM and the “Gal4-RORγ Assay Max Response” value is recorded as “** (The symbol “**” indicates a value in the range of greater than 90 to 150)”.

Regarding `CC1(C(=O)O)CC(C[C@H]2CN(S(=O)(=O)c3cccc(C(F)(F)F)c3)c3cc(-c4cc(F)cc(F)c4Cl)ccc3O2)C1` (stereo partly drawn) [Compound 60G, (1R,3s)-3-(((S)-6-(2-chloro-3,5-difluorophenyl)-4-((3-(trifluoro-methyl)phenyl)sulfonyl)-3,4-dihydro-2H-benzo[b][1,4]oxazin-2-yl)methyl)-1-methylcyclo-butane-1-carboxylic acid], where the note is “2 μM ursolic acid”, the EC50 is < 0.5 µM and the “Gal4-RORγ Assay Max Response” value is recorded as “*** (The symbol “***” indicates a value in the range of greater than 150 to 200)”.

In the case of `O=C(O)[C@]1(C[C@H]2CN(S(=O)(=O)c3cccc(C(F)(F)F)c3)c3cc(-c4cc(F)cc(OC(F)F)c4)ccc3O2)C[C@@H](O)C1` [Compound 68, (1r,3R)-1-(((S)-6-(3-(difluoromethoxy)-5-fluorophenyl)-4-((3-(trifluoromethyl)phenyl)sulfonyl)-3,4-dihydro-2H-benzo[b][1,4]oxazin-2-yl)methyl)-3-hydroxycyclobutane-1-carboxylic acid], where the note is “2 μM ursolic acid”, the EC50 is < 0.5 µM and the “Gal4-RORγ Assay Max Response” value is “** (The symbol “**” indicates a value in the range of greater than 90 to 150)”.

Turning to `O=C(O)C1(C[C@H]2CN(S(=O)(=O)c3cccc(C(F)(F)F)c3)c3cc(-c4cc(F)cc(F)c4F)ccc3O2)CCOCC1` [Compound 78T, (S)-4-((4-((3-(trifluoromethyl)-phenyl)sulfonyl)-6-(2,3,5-trifluorophenyl)-3,4-dihydro-2H-benzo[b][1,4]oxazin-2-yl)methyl)tetrahydro-2H-pyran-4-carboxylic acid], where the note is “2 μM ursolic acid”, the EC50 is < 0.5 µM and the “Gal4-RORγ Assay Max Response” value is listed as “** (The symbol “**” indicates a value in the range of greater than 90 to 150)”.

Regarding `CC(C)(O[C@@H]1Cc2ccc(-c3cc(F)cc(OC(F)F)c3)cc2N(S(=O)(=O)c2cccc(C(F)(F)F)c2)C1)C(=O)O` [Compound 83D, (R)-2-((7-(3-(difluoromethoxy)-5-fluorophenyl)-1-((3-(trifluoromethyl)phenyl)sulfonyl)-1,2,3,4-tetrahydroquinolin-3-yl)oxy)-2-methylpropanoic acid], where the note is “2 μM ursolic acid”, the EC50 lay within 0.5 to 5 µM and the “Gal4-RORγ Assay Max Response” value was “** (The symbol “**” indicates a value in the range of greater than 90 to 150)”.

On to `CC(C)c1cccc(S(=O)(=O)N2C[C@H](CC(C)(C)C(=O)O)Oc3ccc(-c4cc(F)ccc4F)cc32)c1` [Compound 32M, (S)-3-(6-(2,5-difluorophenyl)-4-((3-isopropylphenyl)sulfonyl)-3,4-dihydro-2H-benzo[b][1,4]oxazin-2-yl)-2,2-dimethylpropanoic acid], for which, under setting [1], the EC50 is 0.5 to 5 µM and the “Gal4-RORγ Assay Max Response” value is “** (The symbol “**” indicates a value in the range of greater than 90 to 150)”.

In the case of `O=C(O)C1(C[C@H]2CN(S(=O)(=O)c3cccc(C(F)(F)F)c3)c3cc(-c4cc(F)cc(OC(F)F)c4F)ccc3O2)CCOCC1` [Compound 78V, (S)-4-((6-(3-(difluoromethoxy)-2,5-difluorophenyl)-4-((3-(trifluoromethyl)phenyl)sulfonyl)-3,4-dihydro-2H-benzo[b][1,4]oxazin-2-yl)methyl)tetrahydro-2H-pyran-4-carboxylic acid], where the note is “2 μM ursolic acid”, the EC50 is < 0.5 µM and the “Gal4-RORγ Assay Max Response” value was “** (The symbol “**” indicates a value in the range of greater than 90 to 150)”.

For the molecule `O=C(O)C1(C[C@H]2CN(S(=O)(=O)c3cc(F)cc(C(F)(F)F)c3)c3cc(-c4cc(F)ccc4F)ccc3O2)COC1` [Compound 51G, (S)-3-((6-(2,5-difluorophenyl)-4-((3-fluoro-5-(trifluoromethyl)-phenyl)sulfonyl)-3,4-dihydro-2H-benzo[b][1,4]oxazin-2-yl)methyl)oxetane-3-carboxylic acid], under “2 μM ursolic acid”, the EC50 was < 0.5 µM and the “Gal4-RORγ Assay Max Response” value is “** (The symbol “**” indicates a value in the range of greater than 90 to 150)”.

As for `O=C(O)[C@]1(C[C@H]2CN(S(=O)(=O)c3cccc(C(F)(F)F)c3)c3cc(-c4cc(F)cc(OC(F)F)c4)ccc3O2)C[C@](O)(CO)C1` [Compound 87, (1r,3R)-1-(((S)-6-(3-(difluoromethoxy)-5-fluorophenyl)-4-((3-(trifluoromethyl)phenyl)sulfonyl)-3,4-dihydro-2H-benzo[b][1,4]oxazin-2-yl)methyl)-3-hydroxy-3-(hydroxymethyl)cyclobutane-1-carboxylic acid], under “2 μM ursolic acid”, the EC50 lay within 0.5 to 5 µM and the “Gal4-RORγ Assay Max Response” value is “** (The symbol “**” indicates a value in the range of greater than 90 to 150)”.

For the molecule `O=C(O)[C@]1(C[C@H]2CN(S(=O)(=O)c3cccc(C(F)(F)F)c3)c3cc(-c4cc(F)ccc4F)ccc3O2)C[C@](O)(CO)C1` [Compound 89D, (1r,3R)-1-(((S)-6-(2,5-difluoro-phenyl)-4-((3-(trifluoromethyl)-phenyl)sulfonyl)-3,4-dihydro-2H-benzo[b][1,4]oxazin-2-yl)methyl)-3-hydroxy-3-(hydroxymethyl)-cyclobutane-1-carboxylic acid], where the note is “2 μM ursolic acid”, the EC50 lay in the range of 0.5 to 5 µM and the “Gal4-RORγ Assay Max Response” value is “** (The symbol “**” indicates a value in the range of greater than 90 to 150)”.

With `CC(C)(O[C@H]1Cc2ccc(-c3cc(F)ccc3F)cc2N(S(=O)(=O)c2cccc(C(F)(F)F)c2)C1)C(=O)O` [Compound 83C, (S)-2-((7-(2,5-difluorophenyl)-1-((3-(trifluoromethyl)phenyl)sulfonyl)-1,2,3,4-tetrahydroquinolin-3-yl)oxy)-2-methylpropanoic acid], where the note is “2 μM ursolic acid”, the EC50 lay within 0.5 to 5 µM and the “Gal4-RORγ Assay Max Response” value is “** (The symbol “**” indicates a value in the range of greater than 90 to 150)”.

Take `O=C(O)C1(C[C@H]2CN(S(=O)(=O)c3cccc(C(F)(F)F)c3)c3cc(-c4cccc(F)c4Cl)ccc3O2)CCOCC1` [Compound 78M, (S)-4-((6-(2-chloro-3-fluoro-phenyl)-4-((3-(trifluoromethyl)-phenyl)sulfonyl)-3,4-dihydro-2H-benzo[b][1,4]oxazin-2-yl)methyl)tetrahydro-2H-pyran-4-carboxylic acid]: under “2 μM ursolic acid”, the EC50 was < 0.5 µM and the “Gal4-RORγ Assay Max Response” value is recorded as “*** (The symbol “***” indicates a value in the range of greater than 150 to 200)”.

Regarding `COc1cc(F)cc(-c2ccc3c(c2)N(S(=O)(=O)c2cccc(C(F)(F)F)c2)C[C@H](CC2(C(=O)O)CCOCC2)O3)c1F` [Compound 78S, (S)-4-((6-(2,5-difluoro-3-methoxyphenyl)-4-((3-(trifluoro-methyl)phenyl)sulfonyl)-3,4-dihydro-2H-benzo[b][1,4]oxazin-2-yl)methyl)tetrahydro-2H-pyran-4-carboxylic acid], for the setting “2 μM ursolic acid”, the half-maximal effective concentration (EC50) was < 0.5 µM and the “Gal4-RORγ Assay Max Response” value is recorded as “** (The symbol “**” indicates a value in the range of greater than 90 to 150)”.
